Laboratory results reported in patent US5043336A (priority 1990, dated 1991).
Where a name gives a salt, the structure may show the parent alone.

Assays:
[1] = tested on: CCRF-CEM cell line (human leukemic cells); assay: CCRF-CEM Cytotoxicity Assay (growth inhibition of human leukemic cells, 72 h); type: cell-based; settings: 37° C.; for IC50: Homo sapiens, CCRF-CEM, 72 h, read-out: IC50 (concentration giving 50% growth inhibition)
Description: The CEM cells were grown in RPMI 1640 media (MA Bioproducts) at 37° C. in humidified atmospheric conditions of 95% air and 5% carbon dioxide. The cells were grown in static suspension and maintained in log growth phase at a concentration of 3-7×10^5 cells/ml. The cells were dispersed in wells at a concentration of 4.8×10^4 /well. The drug was dissolved in dimethyl sulfoxide or water and was added at different dilutions to the cluster plates (wells). The cluster plates were incubated at 37° C. for 72 hours. After 72 hours the wells were read using a ZBI Coulter particle counter. Table 2 below gives the results of such testing of several compounds represented by Formula I above. In the table, Column 1 gives the name of the compound and Column 2 gives the IC50 (concentration giving 50% growth inhibition) in μg/ml.

[2] = pKa (66% DMF); type: physicochemical
[3] = trial test of the water solubility of the salt; type: physicochemical; settings: after adjusting pH to 3.6, before additional 0.5 ml of 2% sulfuric acid
Description: All of the 4-desacetyl VLB C-3 N^2 -(hexahydro-2-methyl-7-oxo-1H-azepin-1-yl)carboxhydrazide prepared from Example 6 was dissolved in 50 ml of ethanol. The initial pH of 4.9 was adjusted to 3.6 with 2% sulfuric acid in ethanol. […] This material was evaporated to dryness in vacuo, which yielded 750 mg of the title compounds.

[4] = tested on: Ridgeway osteogenic sarcoma; settings: transplanted tumors in mice; cited from earlier work
[5] = tested on: P1534(J) leukemia; settings: transplanted tumors in mice; cited from earlier work
[6] = tested on: Gardner lymphosarcoma; settings: transplanted tumors in mice; cited from earlier work
[7] = tested on: experimental malignancies; settings: in vivo; cited from earlier work
[8] = in humans; cited from earlier work
[9] = tested on: vincristine-resistant leukemias; settings: in humans; cited from earlier work

SMILES: CC[C@]1(O)C[C@@H]2CN(CCc3c([nH]c4ccccc34)[C@@](C(=O)OC)(c3cc4c(cc3OC)N(C)[C@H]3[C@@](O)(C(=O)NN5C(=O)CCC5C)[C@H](O)[C@]5(CC)C=CCN6CC[C@]43[C@@H]65)C2)C1 (single isomer, unassigned) [4-Desacetyl VLB C-3 N^2 -(2-methyl-5-oxo-1-pyrrolidinyl)carb] [4-Desacetyl VLB C-3 N^2-(2-methyl-5-oxo-1-pyrrolidinyl)carboxhydrazide(Isomer 2) sulfate salt]
- IC50 (concentration giving 50% growth inhibition) ([1]; sulfate salt): 0.09 µg/mL

SMILES: CC[C@]1(O)C[C@@H]2CN(CCc3c([nH]c4ccccc34)[C@@](C(=O)OC)(c3cc4c(cc3OC)N(C)[C@H]3[C@@](O)(C(=O)NN5C(=O)CCC5C)[C@H](O)[C@]5(CC)C=CCN6CC[C@]43[C@@H]65)C2)C1 (single isomer, unassigned) [4-Desacetyl VLB C-3 N^2-(2-methyl-5-oxo-1-pyrrolidinyl)carboxhydrazide(Isomer 1) sulfate salt]
- IC50 [1]: 0.1 µg/mL

SMILES: CC[C@]1(O)C[C@@H]2CN(CCc3c([nH]c4ccccc34)[C@@](C(=O)OC)(c3cc4c(cc3OC)N(C)[C@H]3[C@@](O)(C(=O)N5N=C(C)CCCC5=O)[C@H](O)[C@]5(CC)C=CCN6CC[C@]43[C@@H]65)C2)C1 [4-Desacetyl VLB C-3 N^1-(4,5,6,7-tetrahydro-3-methyl-7-oxo-1H-1,2-diazepin-1-yl)carboxhydrazide sulfate salt]
- IC50 [1]: 0.019 µg/mL

SMILES: CC[C@]1(O)C[C@@H]2CN(CCc3c([nH]c4ccccc34)[C@@](C(=O)OC)(c3cc4c(cc3OC)N(C)[C@H]3[C@@](O)(C(=O)NNC(C)CCC(=O)O)[C@H](O)[C@]5(CC)C=CCN6CC[C@]43[C@@H]65)C2)C1 (some centres unmarked) [4-Desacetyl VLB C-3 N^2-(3-carboxy-1-methylpropyl)carboxhydrazide]
- pKa ([2]; first value listed): 5.3
- pKa ([2]; second value listed): 6.9
- pKa ([2]; third value listed): 7.9

SMILES: CC[C@]1(O)C[C@@H]2CN(CCc3c([nH]c4ccccc34)[C@@](C(=O)OC)(c3cc4c(cc3OC)N(C)[C@H]3[C@@](O)(C(=O)NN=C(C)CCCC(=O)O)[C@H](O)[C@]5(CC)C=CCN6CC[C@]43[C@@H]65)C2)C1 [4-Desacetyl VLB C-3 N^2-(4-carboxy-1-methylbutylidene)carboxhydrazide]
- pKa ([2]; first value listed): 5.1
- pKa ([2]; second value listed): 6.6
- pKa ([2]; third value listed): 7.7

SMILES: CC[C@]1(O)C[C@@H]2CN(CCc3c([nH]c4ccccc34)[C@@](C(=O)OC)(c3cc4c(cc3OC)N(C)[C@H]3[C@@](O)(C(=O)NN=C(C)CCCCC(=O)O)[C@H](O)[C@]5(CC)C=CCN6CC[C@]43[C@@H]65)C2)C1 [4-Desacetyl VLB C-3 N^2-(5-carboxy-1-methylpentylidene)carboxhydrazide]
- pKa ([2]; first value listed): 5.3
- pKa ([2]; second value listed): 7
- pKa ([2]; third value listed): 8.1

SMILES: CC[C@]1(O)C[C@@H]2CN(CCc3c([nH]c4ccccc34)[C@@](C(=O)OC)(c3cc4c(cc3OC)N(C)[C@H]3[C@@](O)(C(=O)NN5C(=O)CCCCC5C)[C@H](O)[C@]5(CC)C=CCN6CC[C@]43[C@@H]65)C2)C1 (some centres unmarked) [4-Desacetyl VLB C-3 N^2-(hexahydro-2-methyl-7-oxo-1H-azepin-1-yl)carboxhydrazide sulfate salt]
- water solubility of the salt [3]: not completely soluble
- IC50 [1]: 0.0056 µg/mL

SMILES: CC[C@]1(O)C[C@@H]2CN(CCc3c([nH]c4ccccc34)[C@@](C(=O)OC)(c3cc4c(cc3OC)N(C)[C@H]3[C@@](O)(C(=O)NN)[C@H](O)[C@]5(CC)C=CCN6CC[C@]43[C@@H]65)C2)C1 [4-Desacetyl VLB C-3 carboxhydrazide]
- activity against Ridgeway osteogenic sarcoma [4]: active
- activity against P1534(J) leukemia [5]: active
- activity against Gardner lymphosarcoma [6]: active

SMILES: CCC1(O)CN2CCc3c([nH]c4ccccc34)C(C(=O)OC)(c3cc4c(cc3OC)N(C)C3C(O)(C(=O)OC)CC5(CC)C=CCN6CCC43C65)CC(C2)C1O (centres unmarked) [4-desacetoxy-3'-hydroxyvinblastine]
- activity in the treatment of experimental malignancies in animals [7]: active

SMILES: CC[C@]1(O)C[C@@H]2CN(CCc3c([nH]c4ccccc34)[C@@](C(=O)OC)(c3cc4c(cc3OC)N(C)[C@@H]3[C@]45CCN4CC=C[C@@](CC)(C[C@]3(O)C(=O)OC)[C@H]45)C2)C1 [4-desacetoxyvinblastine]
- activity in the treatment of experimental malignancies in animals [7]: active

SMILES: CC[C@]1(O)C[C@@H]2CN(CCc3c([nH]c4ccccc34)[C@@](C(=O)OC)(c3cc4c(cc3OC)N(C)[C@H]3[C@@](O)(C(=O)OC)[C@H](OC(C)=O)[C@]5(CC)C=CCN6CC[C@]43[C@@H]65)C2)C1 [VLB, vincaleukoblastine]
- activity in the treatment of experimental malignancies in animals [7]: active

SMILES: CCC1CC2CN(CCc3c([nH]c4ccccc34)C(C(=O)OC)(c3cc4c(cc3OC)N(C)C3C(O)(C(=O)OC)C(OC(C)=O)C5(CC)C=CCN6CCC43C65)C2)C1 (centres unmarked) [deoxy VLB "A"]
- activity in the treatment of experimental malignancies in animals [7]: active

SMILES: CCC1(O)CN2CCc3c([nH]c4ccccc34)C(C(=O)OC)(c3cc4c(cc3OC)N(C)C3C(O)(C(=O)OC)C(OC(C)=O)C5(CC)C=CCN6CCC43C65)CC(O)(C2)C1 (centres unmarked) [leurocolombine]
- activity in the treatment of experimental malignancies in animals [7]: active

SMILES: CC[C@]12CN3CCc4c([nH]c5ccccc45)[C@@](C(=O)OC)(c4cc5c(cc4OC)N(C=O)[C@H]4[C@@](O)(C(=O)OC)[C@H](OC(C)=O)[C@]6(CC)C=CCN7CC[C@]54[C@@H]76)C[C@@H](C3)[C@H]1O2 [leuroformine]
- activity in the treatment of experimental malignancies in animals [7]: active

SMILES: CC[C@@]1(O)C[C@@H]2CN(CCc3c([nH]c4ccccc34)[C@@](C(=O)OC)(c3cc4c(cc3OC)N(C)[C@H]3[C@@](O)(C(=O)OC)[C@H](OC(C)=O)[C@]5(CC)C=CCN6CC[C@]43[C@@H]65)C2)C1 [leurosidine]
- activity in the treatment of experimental malignancies in animals [7]: active

SMILES: CC[C@]12CN3CCc4c([nH]c5ccccc45)[C@@](C(=O)OC)(c4cc5c(cc4OC)N(C)[C@H]4[C@@](O)(C(=O)OC)[C@H](OC(C)=O)[C@]6(CC)C=CCN7CC[C@]54[C@@H]76)C[C@H](C3)[C@H]1O2 [leurosine]
- activity in the treatment of experimental malignancies in animals [7]: active

SMILES: CCC1(O)CN2CCc3c([nH]c4ccccc34)C(C(=O)OC)(c3cc4c(cc3OC)N(C)C3C(O)(C(=O)OC)C(OC(C)=O)C5(CC)C=CCN6CCC43C65)CC(C2)C1O (centres unmarked) [vincadioline]
- activity in the treatment of experimental malignancies in animals [7]: active

SMILES: CC[C@]1(O)C[C@H]2CN(CCc3c([nH]c4ccccc34)[C@@](C(=O)OC)(c3cc4c(cc3OC)N(C=O)[C@H]3[C@@](O)(C(=O)OC)[C@H](OC(C)=O)[C@]5(CC)C=CCN6CC[C@]43[C@@H]65)C2)C1 [vincristine]
- activity in the treatment of experimental malignancies in animals [7]: active

SMILES: CC[C@]1(O)C[C@@H]2CN(CCc3c([nH]c4ccccc34)[C@@](C(=O)OC)(c3cc4c(cc3OC)N(C)[C@H]3[C@@](O)(C(N)=O)[C@H](O)[C@]5(CC)C=CCN6CC[C@]43[C@@H]65)C2)C1 [vindesine, 4-desacetyl VLB C-3 carboxamide]
- neurotoxicity compared with vincristine [8]: less neurotoxicity than does vincristine
- effectiveness against vincristine-resistant leukemias [9]: apparently effective
